Reference: patent publication US20200270309A1, “MALEIMIDE GROUP-MODIFIED ANGIOGENESIS INHIBITOR HM-1 AND USE THEREOF” (NANJING ANJI BIOLOGICAL TECHNOLOGY CO., LTD, priority 2017, published 2020)
Marks after values point to notes of the source that are not given here. Peptide text beside a SMILES is read from it. * marks the point of attachment. X65 = O=C1C=CC(=O)N1c1cccc(CCCCCCCCCCCCC(=O)*)c1; X71 = O=C1C=CC(=O)N1c1cccc(CCCCCC(=O)*)c1; X79 = O=C1C=CC(=O)N1c1cccc(CCC(=O)*)c1

Tests used:
[1] = tested on: splenic lymphocytes; assay: Proliferation of splenic lymphocytes in mice (ConA, MTT); format: cell-based; conditions: ConA-stimulated mouse splenic lymphocytes, 48 h
How it was run: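 Mouse splenocytes (5×10^6 cells/mL, RPMI 1640 with 10% calf serum, red cells lysed) stimulated with ConA plus varying polypeptide concentrations, with blank, ConA-only and Dex groups, 48 h at 37° C. MTT added for 4 h, formazan dissolved in DMSO, OD read at 570 nm; five replicates.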

[2] = tested on: corneal neovascularization; assay: Corneal neovascularization induced by alkali burn in BALB/c mice; format: in vivo; design: Inhibition rate (corneal neovascularization): concentration or dose not given beside the values; conditions: day 14 after alkali burn, vitreous injection once a day for 1 week
[3] = tested on: adjuvant arthritis; assay: Rat adjuvant arthritis (AA) animal model; format: in vivo, SD rats; conditions: 4.0 mg/kg; for Clinical score: intravenous in the tail once every five days from day 10, four paws scored 0-4, max 16, mean±SD; for Joint swelling degree / Left and right paw swelling degree: intravenous in the tail once every five days from day 10, mean±SD
[4] = tested on: choroidal neovascularization; assay: Choroidal neovascularization in rats (laser photocoagulation, FFA); format: in vivo; conditions: BN rats
How it was run: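 Male BN rats aged 6-8 weeks were given 8 krypton-laser spots around the optic disc (647.1 nm, 350 mW, 50 μm, 0.05 s). Once the model was confirmed, groups of 5 got daily intravitreal compound at 0.05 μM or saline for 1 week. FFA followed at 3, 7, 14 and 28 days after dosing.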

[5] = tested on: human retinal capillary endothelial cells (HRCECs); assay: MTT proliferation inhibition on HRCECs; format: cell-based; conditions: 48 h; for A570 nm-A630 nm: mean±SD
How it was run: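 HRCECs seeded at 3.0×10^4 cells/mL, adhered overnight, then exposed to polypeptide for 48 h at 37 °C, 5% CO2. MTT added 4 h, formazan dissolved in DMSO, absorbance 570/630 nm; PIR (%) = 1 − treated/negative control, mean±SD of three independent runs.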

[6] = tested on: carrageenan-induced toe swelling; assay: Carrageenan-induced toe swelling in rats; format: in vivo; conditions: SD rats; for Swelling degree 1 h: 1 h after carrageenan; for Swelling degree 3 h: 3 h after carrageenan; for Swelling degree 5 h: 5 h after carrageenan; for Swelling degree 7 h: 7 h after carrageenan
How it was run: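 Rats dosed by injection once daily for 3 d, controls given equal-volume saline. Right hind paw volume measured by water displacement to a marked joint line; swelling degree (mL) is paw volume after carrageenan inflammation minus volume before.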

[7] = day 3 after administration, total light spot number was 297, 0.05 μM in the vitreous chamber once a day for 1 week
[8] = day 7 after administration, total light spot number was 186, 0.05 μM in the vitreous chamber once a day for 1 week
[9] = day 14 after administration, total light spot number was 137, 0.05 μM in the vitreous chamber once a day for 1 week
[10] = day 28 after administration, total light spot number was 69, 0.05 μM in the vitreous chamber once a day for 1 week

Compound | A570 nm/A630 nm ([1]; polypeptide dose 0.05 μM) | Inhibition rate (%) ([1]; polypeptide dose 0.05 μM) | A570 nm/A630 nm ([1]; polypeptide dose 0.1 μM) | Inhibition rate (%) ([1]; polypeptide dose 0.1 μM) | A570 nm/A630 nm ([1]; polypeptide dose 0.2 μM) | Inhibition rate (%) ([1]; polypeptide dose 0.2 μM) | Inhibition rate (corneal neovascularization) [2] [%] | MVD (corneal microvessel density) [2] | Clinical score [3] | Joint swelling degree [3] [mm] | Left and right paw swelling degree [3] [mm] | CNV Incidence (%) [4, 7] [%] | Leakage Light spot number [4, 7] | CNV Incidence (%) [4, 8] [%] | Leakage Light spot number [4, 8] | CNV Incidence (%) [4, 9] [%] | Leakage Light spot number [4, 9] | CNV Incidence (%) [4, 10] [%] | Leakage Light spot number [4, 10] | Inhibition rate (%) ([5]; dose 0.05 μM) [%*] | also measured
C[C@H](NC(=O)CNC(=O)[C@H](CCCNC(=N)N)NC(=O)CCc1cccc(N2C(=O)C=CC2=O)c1)C(=O)N[C@@H](CC(=O)O)C(=O)N[C@@H](CCCNC(=N)N)C(=O)N[C@@H](C)C(=O)NCC(=O)NCC(=O)NCC(=O)NCC(=O)N[C@@H](CCCNC(=N)N)C(=O)NCC(=O)N[C@@H](CC(=O)O)C(=O)O [X26] (X79-RGADRAGGGGRGD-OH) | 0.5714 ± 0.1002 | 15.46 | 0.5365 ± 0.0543 | 20.57 | 0.4991 ± 0.0743 | 26.10 | 44.32 | 37.44 ± 4.646 | 5.65 ± 1.07 | 0.74 ± 0.18 | 3.81 ± 0.59 | 55.22 | 164 | 49.46 | 92 | 45.26 | 62 | 43.48 | 30 | 41.47 | A570 nm-A630 nm ([5]; dose 0.05 μM): 0.7736 ± 0.06908; Inhibition rate (%) ([5]; dose 0.1 μM): 48.48%**; A570 nm-A630 nm ([5]; dose 0.1 μM): 0.6810 ± 0.02943; Inhibition rate (%) ([5]; dose 0.2 μM): 68.51%*; A570 nm-A630 nm ([5]; dose 0.2 μM): 0.4162 ± 0.00082; Swelling degree 1 h ([6]; 2.0 mg/kg once a day for 3 d): 0.28 ± 0.17 mg; Swelling degree 3 h ([6]; 2.0 mg/kg once a day for 3 d): 0.31 ± 0.18 mg; Swelling degree 5 h ([6]; 2.0 mg/kg once a day for 3 d): 0.42 ± 0.11 mg; Swelling degree 7 h ([6]; 2.0 mg/kg once a day for 3 d): 0.39 ± 0.12 mg; Swelling degree 1 h ([6]; 4.0 mg/kg once a day for 3 d): 0.25 ± 0.18 mg; Swelling degree 3 h ([6]; 4.0 mg/kg once a day for 3 d): 0.31 ± 0.13 mg; Swelling degree 5 h ([6]; 4.0 mg/kg once a day for 3 d): 0.40 ± 0.15 mg; Swelling degree 7 h ([6]; 4.0 mg/kg once a day for 3 d): 0.30 ± 0.16 mg
C[C@H](NC(=O)CNC(=O)[C@H](CCCNC(=N)N)NC(=O)CCCCCc1cccc(N2C(=O)C=CC2=O)c1)C(=O)N[C@@H](CC(=O)O)C(=O)N[C@@H](CCCNC(=N)N)C(=O)N[C@@H](C)C(=O)NCC(=O)NCC(=O)NCC(=O)NCC(=O)N[C@@H](CCCNC(=N)N)C(=O)NCC(=O)N[C@@H](CC(=O)O)C(=O)O [X29] (X71-RGADRAGGGGRGD-OH) | 0.5595 ± 0.0932 | 17.16 | 0.5284 ± 0.0661 | 21.76 | 0.5094 ± 0.1191 | 24.58 | 54.98 | 30.27 ± 4.918 | 5.72 ± 1.06 | 0.84 ± 0.16 | 3.72 ± 0.80 | 54.21 | 161 | 45.70 | 85 | 40.88 | 56 | 39.13 | 27 | 52.67 | A570 nm-A630 nm ([5]; dose 0.05 μM): 0.6256 ± 0.09549; Inhibition rate (%) ([5]; dose 0.1 μM): 58.02%**; A570 nm-A630 nm ([5]; dose 0.1 μM): 0.5549 ± 0.02011; Inhibition rate (%) ([5]; dose 0.2 μM): 61.03%*; A570 nm-A630 nm ([5]; dose 0.2 μM): 0.5151 ± 0.01135; Swelling degree 1 h ([6]; 2.0 mg/kg once a day for 3 d): 0.27 ± 0.16 mg; Swelling degree 3 h ([6]; 2.0 mg/kg once a day for 3 d): 0.35 ± 0.18 mg; Swelling degree 5 h ([6]; 2.0 mg/kg once a day for 3 d): 0.36 ± 0.19 mg; Swelling degree 7 h ([6]; 2.0 mg/kg once a day for 3 d): 0.33 ± 0.17 mg; Swelling degree 1 h ([6]; 4.0 mg/kg once a day for 3 d): 0.22 ± 0.12 mg; Swelling degree 3 h ([6]; 4.0 mg/kg once a day for 3 d): 0.34 ± 0.15 mg; Swelling degree 5 h ([6]; 4.0 mg/kg once a day for 3 d): 0.35 ± 0.13 mg; Swelling degree 7 h ([6]; 4.0 mg/kg once a day for 3 d): 0.32 ± 0.17 mg
C[C@H](NC(=O)CNC(=O)[C@H](CCCNC(=N)N)NC(=O)CCCCCCCCCCCCc1cccc(N2C(=O)C=CC2=O)c1)C(=O)N[C@@H](CC(=O)O)C(=O)N[C@@H](CCCNC(=N)N)C(=O)N[C@@H](C)C(=O)NCC(=O)NCC(=O)NCC(=O)NCC(=O)N[C@@H](CCCNC(=N)N)C(=O)NCC(=O)N[C@@H](CC(=O)O)C(=O)O [X36] (X65-RGADRAGGGGRGD-OH) | 0.6051 ± 0.0633 | 10.41 | 0.4566 ± 0.1223 | 32.40 | 0.4401 ± 0.051 | 34.84 | 45.52 | 36.63 ± 5.284 | 5.71 ± 1.09 | 0.81 ± 0.12 | 4.00 ± 0.44 | 50.51 | 150 | 49.46 | 92 | 40.15 | 55 | 43.48 | 30 | 55.25 | A570 nm-A630 nm ([5]; dose 0.05 μM): 0.5915 ± 0.05135; Inhibition rate (%) ([5]; dose 0.1 μM): 60.38%**; A570 nm-A630 nm ([5]; dose 0.1 μM): 0.5237 ± 0.03194; Inhibition rate (%) ([5]; dose 0.2 μM): 64.71%*; A570 nm-A630 nm ([5]; dose 0.2 μM): 0.4664 ± 0.03733; Swelling degree 1 h ([6]; 2.0 mg/kg once a day for 3 d): 0.29 ± 0.17 mg; Swelling degree 3 h ([6]; 2.0 mg/kg once a day for 3 d): 0.34 ± 0.18 mg; Swelling degree 5 h ([6]; 2.0 mg/kg once a day for 3 d): 0.43 ± 0.13 mg; Swelling degree 7 h ([6]; 2.0 mg/kg once a day for 3 d): 0.32 ± 0.15 mg; Swelling degree 1 h ([6]; 4.0 mg/kg once a day for 3 d): 0.23 ± 0.15 mg; Swelling degree 3 h ([6]; 4.0 mg/kg once a day for 3 d): 0.33 ± 0.13 mg; Swelling degree 5 h ([6]; 4.0 mg/kg once a day for 3 d): 0.35 ± 0.12 mg; Swelling degree 7 h ([6]; 4.0 mg/kg once a day for 3 d): 0.32 ± 0.17 mg
